According to article PMC9597602, “Metal Complexes as Antifungals? From a Crowd-Sourced Compound Library to the First In Vivo Experiments” (JACS Au, 2022):
Several values for one entry are separate records, joined by “and”; a condition that tells them apart may be missing. Equal entries are not always repeated. Where two headings read alike, the source gives them in different places. Starred links: 1 amine or outer side, 2 acyl side, 3 side chain; linkers in the order of their positions; H or OH if unused. Positions of bridges follow the written chain, without caps; N, C: chain ends. Non-standard residues stand in square brackets, D forms with d. Residues, ends and D or L forms follow the SMILES beside them. *: point of attachment. hTyr(3S-OH,4S-OH,3'-OSO3H) = N[C@H](C(=O)O)[C@H](O)[C@@H](O)c1ccc(O)c(OS(=O)(=O)O)c1; Orn(4R-OH,5R-OH) = O=C([C@H](C[C@@H](O)[C@@H](O)N[*:3])N[*:1])[*:2]; Pro(3S-OH,4S-Me) = C[C@H]1CN[C@H](C(=O)O)[C@H]1O; X1 = CCCCCOc1ccc(-c2cc(-c3ccc(C(=O)*)cc3)no2)cc1; Gln(3R-OH) = NC(=O)C[C@@H](O)[C@H](N)C(=O)O; Hyp = O=C(O)[C@@H]1C[C@@H](O)CN1

Columns and labels:
[1] = system: Candida albicans ATCC 90028 NCCLS11; assay: Antifungal MIC assay; type: cell-based
Method in brief: (§1)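 Read-out was the lowest compound concentration producing ≥80% growth inhibition, scored per CLSI M27. Yeast cells, precultured on YPD agar, were tested in YNB medium at a final 2.5 × 10^3 CFU/mL over 36 h at 35 °C.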

[2] = system: Cryptococcus neoformans H99 ATCC 208821 type strain; assay: Antifungal MIC assay; type: cell-based
Method in brief: as §1

[3] = system: Candida auris CBS10913 JCM 15448; assay: Antifungal MIC assay, extended panel; type: cell-based; settings: read-out: MIC* Candida auris CBS10913
Experimental: (§2) For the fungal assays, both fungi (yeast) strains were cultured for 3 days on Yeast Extract-Peptone Dextrose (YPD; Becton Dickinson 242720) agar at 30 °C. A yeast suspension of 1 × 10^6 to 5 × 10^6 CFU/mL (as determined by OD530) was prepared from five colonies from the agar plates, subsequently diluted with Yeast Nitrogen Base media (YNB; Becton Dickinson 233520), and added to each well of the compound containing plates (384-well plates, NBS; Corning CLS3640), giving a final cell density of 2.5 × 10^3 CFU/mL and a total volume of 50 μL. Plates were covered and incubated at 35 °C for 36 h without shaking. […] MIC […] Reference Method for Broth Dilution Antifungal Susceptibility Testing of Yeasts. […] Fluconazole (Sigma F8929) was used as internal control on each plate for all strains. All compounds were tested as two technical replicates in two to four independent biological assays, n = 4–8 final data.

[4] = system: Candida auris CBS12373 KCTC 17810; assay: Antifungal MIC assay, extended panel; type: cell-based; settings: read-out: MIC* Candida auris CBS12373
Experimental: as §2

[5] = system: Candida glabrata ATCC 90030 NCCLS 84; assay: Antifungal MIC assay, extended panel; type: cell-based; settings: Nakaseomyces glabratus, ATCC90030, read-out: MIC* Candida glabrata ATCC 90030
[6] = system: Candida tropicalis ATCC 750; assay: Antifungal MIC assay, extended panel; type: cell-based; settings: Candida tropicalis, ATCC750, read-out: MIC* Candida tropicalis ATCC 750
[7] = system: Cryptococcus deuterogattii ATCC 32609 VGII; assay: Antifungal MIC assay, extended panel; type: cell-based; settings: Cryptococcus deuterogattii, ATCC32609, read-out: MIC* Cryptococcus deuterogattii ATCC 32609
[8] = system: Cryptococcus deuterogattii CBS7750 VGII; Serotype B; assay: Antifungal MIC assay, extended panel; type: cell-based; settings: Cryptococcus deuterogattii, CBS7750, read-out: MIC* Cryptococcus deuterogattii CBS7750
[9] = system: Candida glabrata ATCC 90030 NCCLS 84; assay: Antifungal MIC assay, extended panel; type: cell-based
Experimental: (§3) For the fungal assays, both fungi (yeast) strains were cultured for 3 days on Yeast Extract-Peptone Dextrose (YPD; Becton Dickinson 242720) agar at 30 °C. A yeast suspension of 1 × 10^6 to 5 × 10^6 CFU/mL (as determined by OD530) was prepared from five colonies from the agar plates, subsequently diluted with Yeast Nitrogen Base media (YNB; Becton Dickinson 233520), and added to each well of the compound containing plates (384-well plates, NBS; Corning CLS3640), giving a final cell density of 2.5 × 10^3 CFU/mL and a total volume of 50 μL. Plates were covered and incubated at 35 °C for 36 h without shaking. […] MIC values were recorded as the lowest concentration at which the growth was inhibited by ≥80%, equivalent to ″optically clear-to-slightly hazy″ or MIC score of 0–1 as per CLSI guidelines M27 Reference Method for Broth Dilution Antifungal Susceptibility Testing of Yeasts. […] Fluconazole (Sigma F8929) was used as internal control on each plate for all strains. All compounds were tested as two technical replicates in two to four independent biological assays, n = 4–8 final data.

[10] = system: Cryptococcus deuterogattii ATCC 32609 VGII; assay: Antifungal MIC assay, extended panel; type: cell-based; settings: for MIC: Cryptococcus deuterogattii, ATCC32609, comparator antifungals
Experimental: as §3

[11] = system: Cryptococcus deuterogattii CBS7750 VGII; Serotype B; assay: Antifungal MIC assay, extended panel; type: cell-based
Experimental: as §3

[12] = system: Candida tropicalis ATCC 750; assay: Antifungal MIC assay, extended panel; type: cell-based
Experimental: as §3

human red blood cells = type: cell-based
Method in brief: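 Washed human erythrocytes at 0.5 × 10^8 cells/mL incubated with compound, then centrifuged. Haemolysis read as supernatant OD405, normalised to untreated cells (0%) and 1% Triton X-100 (100%), with melittin as internal plate control.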

[13] = system: Escherichia coli ATCC 25922 FDA control strain; assay: CO-ADD antibacterial MIC assay; type: cell-based; settings: initial CO-ADD dose-response screening; ≥80% growth inhibition
Method in brief: (§4)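 Mid-log cultures in cation-adjusted Mueller Hinton broth at 5 × 10^5 CFU/mL, incubated with compound 18 h at 37 °C without shaking; growth read as OD600. MIC is the lowest concentration giving ≥80% growth inhibition; two technical replicates in two independent assays (n = 4).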

[14] = system: methicillin-resistant Staphylococcus aureus ATCC 43300; assay: CO-ADD antibacterial MIC assay; type: cell-based; settings: initial CO-ADD dose-response screening; ≥80% growth inhibition
Method in brief: as §4

[15] = system: Acinetobacter baumannii ATCC 19606 type strain; assay: CO-ADD antibacterial MIC assay; type: cell-based; settings: initial CO-ADD dose-response screening; ≥80% growth inhibition
Method in brief: as §4

[16] = system: Pseudomonas aeruginosa ATCC 27853 QC control strain; assay: CO-ADD antibacterial MIC assay; type: cell-based; settings: initial CO-ADD dose-response screening; ≥80% growth inhibition
Method in brief: as §4

[17] = system: HEK-293 human embryonic kidney cells ATCC CRL-1573
Experimental: The cells were incubated together with the compounds for 20 h at 37 °C in 5% CO2. […] Tamoxifen (Sigma T5648) was used as internal control on each plate.

[18] = Candida albicans, ATCC90028, comparator antifungals, MIC = ≥80% inhibition, read-out: MIC* Candida albicans ATCC 90028
[19] = Candida albicans, ATCC90028, comparator antifungals, ≥80% inhibition, converted with MW of Table S12, read-out: MIC* Candida albicans ATCC 90028
[20] = Cryptococcus neoformans, ATCC208821, comparator antifungals, MIC = ≥80% inhibition, read-out: MIC* Cryptococcus neoformans ATCC 208821
[21] = Cryptococcus neoformans, ATCC208821, comparator antifungals, ≥80% inhibition, converted with MW of Table S12, read-out: MIC* Cryptococcus neoformans ATCC 208821
[22] = Candidozyma auris, comparator antifungals, MIC = ≥80% inhibition
[23] = Candidozyma auris, comparator antifungals, ≥80% inhibition, converted with MW of Table S12
[24] = Nakaseomyces glabratus, ATCC90030, comparator antifungals, MIC = ≥80% inhibition
[25] = Nakaseomyces glabratus, ATCC90030, comparator antifungals, ≥80% inhibition, converted with MW of Table S12
[26] = ≥80% inhibition, converted with MW of Table S12
[27] = Cryptococcus deuterogattii, CBS7750, comparator antifungals, MIC = ≥80% inhibition
[28] = Cryptococcus deuterogattii, CBS7750, comparator antifungals, ≥80% inhibition, converted with MW of Table S12
[29] = Candida tropicalis, ATCC750, comparator antifungals, MIC = ≥80% inhibition
[30] = Candida tropicalis, ATCC750, comparator antifungals, ≥80% inhibition, converted with MW of Table S12
[31] = initial CO-ADD dose-response screening, ≥80% growth inhibition
[32] = extended panel, second batch, ≥80 or ≥50% inhibition

SMILES	MIC [1, 18] [mg/L]	MIC [1, 19] [µM]	MIC [2, 20] [mg/L]	MIC [2, 21] [µM]	MIC [3, 22] [mg/L]	MIC [3, 23] [µM]	MIC [4, 22] [mg/L]	MIC [4, 23] [µM]	MIC [9, 24] [mg/L]	MIC [9, 25] [µM]	MIC ([10]; MIC = ≥80% inhibition) [mg/L]	MIC [10, 26] [µM]	MIC [11, 27] [mg/L]	MIC [11, 28] [µM]	MIC [12, 29] [mg/L]	MIC [12, 30] [µM]	further results
CCCCCOc1ccc(-c2cc(-c3ccc(C(=O)N[C@H]4C[C@@H](O)[C@@H](O)NC(=O)[C@@H]5[C@@H](O)[C@@H](C)CN5C(=O)[C@H]([C@H](O)CC(N)=O)NC(=O)[C@H]([C@H](O)[C@@H](O)c5ccc(O)c(OS(=O)(=O)O)c5)NC(=O)[C@@H]5C[C@@H](O)CN5C(=O)[C@H]([C@@H](C)O)NC4=O)cc3)no2)cc1 [Micafungin, reference compound] (X1-[Orn(4R-OH,5R-OH)]T[Hyp][hTyr(3S-OH,4S-OH,3'-OSO3H)][Gln(3R-OH)][Pro(3S-OH,4S-Me)]; lactam 1-C)	–	–	–	–	–	–	–	–	–	–	–	–	–	–	–	–	MIC ([1]; Candida albicans, ATCC90028, read-out: MIC* Candida albicans ATCC 90028): ≤ 0.0005 µg/mL and ≤ 0.0007 µM; MIC ([2]; Cryptococcus neoformans, ATCC208821, read-out: MIC* Cryptococcus neoformans ATCC 208821): 0.015 µg/mL to 0.063 µg/mL and 0.017 µM to 0.07 µM; MIC ([3]; Candidozyma auris): ≤ 0.001 µg/mL and ≤ 0.0014 µM; MIC ([4]; Candidozyma auris): 2 µg/mL and 2.23 µM; MIC [5]: 4 µg/mL to 32 µg/mL and 4.45 µM to 35.7 µM; MIC [6]: 0.008 µg/mL to 0.063 µg/mL and 0.009 µM to 0.07 µM; MIC [7]: 0.016 µg/mL to 0.125 µg/mL and 0.017 µM to 0.139 µM; MIC [8]: 0.06 µg/mL to 0.125 µg/mL and 0.07 µM to 0.139 µM
Nc1nc(=O)[nH]cc1F [5-Fluorocytosine, reference compound]	≤ 0.001	≤ 0.012	0.001 to 0.016	0.0107 to 0.172	≤ 0.002	≤ 0.021	≤ 0.002	≤ 0.021	> 32	> 351	0.002 to 0.25	0.021 to 2.75	0.06 to 0.25	0.686 to 2.75	0.001 to 0.002	0.012 to 0.021	–
CC[C@H](C)C[C@H](C)CCCCCCCCC(=O)N[C@H]1C[C@@H](O)[C@@H](NCCN)NC(=O)[C@@H]2[C@@H](O)CCN2C(=O)[C@H]([C@H](O)CCN)NC(=O)[C@H]([C@H](O)[C@@H](O)c2ccc(O)cc2)NC(=O)[C@@H]2C[C@@H](O)CN2C(=O)[C@H]([C@@H](C)O)NC1=O [Caspofungin, reference compound]	0.391 to 1.56	0.357 to 1.43	0.098 to 1.56	0.089 to 1.43	6.25	5.72	12.5	11.4	6.25 to 12.5	5.72 to 11.4	0.1 to 0.63	–	0.06 to 0.1	0.029 to 0.089	1.56	1.43	–
C1=CCCC=CCC1.[Cl][Pd][Cl] [Pd1]	–	–	–	–	–	–	–	–	–	–	–	–	–	–	–	–	MIC ([1]; extended panel, second batch, ≥80 or ≥50% inhibition, read-out: MIC* Candida albicans ATCC 90028): 3.12 µM; MIC Ca [1, 31]: 1.25 µM; MIC ([2]; extended panel, second batch, ≥80 or ≥50% inhibition, read-out: MIC* Cryptococcus neoformans ATCC 208821): ≤0.78 µM; MIC Cn [2, 31]: 0.63 µM; RBC HC10 (human red blood cells; initial CO-ADD screening, 1 h, 10% hemolysis): >20 µM; RBC HC10 (human red blood cells; ranges obtained upon retesting, new batch): 10 µM; MIC [3, 32]: ≤0.78 µM; MIC [4, 32]: ≤0.78 µM; MIC Ec [13]: >20 µM; MIC MRSA (Sa) [14]: >20 µM; MIC Ab [15]: >20 µM; MIC Pa [16]: >20 µM; MIC [9, 32]: 3.12 µM; MIC Cryptococcus deuterogattii ATCC 32609 [10, 32]: 1.56 to 3.12 µM; MIC [11, 32]: ≤0.78 µM; MIC [12, 32]: 6.25 µM; CC50 ([17]; read-out: HEK293 CC50, ranges obtained upon retesting, new batch): > 100 µM; CC50 ([17]; read-out: HEK CC50, initial CO-ADD screening, 20 h): > 20 µM; cytotoxicity: none up to stated concentration ([17]; retest): > 100 µM
CC[C@@H]([C@H](C)O)n1ncn(-c2ccc(N3CCN(c4ccc(OC[C@@H]5CO[C@@](Cn6cncn6)(c6ccc(F)cc6F)C5)cc4)CC3)cc2)c1=O [Posaconazole, reference compound]	0.001 to 0.031	0.002 to 0.063	0.016 to 0.125	0.032 to 0.253	0.031 to 0.063	0.063 to 0.126	2	4.04	2	4.04	0.015 to 0.25	0.032 to 0.506	0.06 to 0.125	0.126 to 0.253	0.125	0.253	–
